In ChEMBL document CHEMBL1201862, “PubChem BioAssay data set” (2004):
The source made the active and inactive calls.

What was measured:
[1] = luciferase reporter signal suppression in cells – H4 neuroglioma cells, luminescence, dose response (AID 1990); format: functional, cell-based
[2] = decrease of insulin promoter-GFP reporter – imaging, high-content screening, mouse beta cells (AID 1628); format: functional; conditions: MIN6
[3] = Luminescence Cell-Based Dose Response HTS to Identify Inhibitors of 5'UTR Stem-Loop Driven Prion Protein mRNA Translation in H4 Neuroglioblastoma Cells. [Related pubchem assays: 1827 (Project Summary), 1813 (Primary HTS)]; format: functional
[4] = MIN6 cell viability loss – mouse insulinoma, cytotoxicity control, dose response (AID 2122); format: functional;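 further: confirmatory high-throughput counterscreen run to flag cytotoxic compounds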
[5] = alpha-synuclein stem-loop luciferase translation blockers – H4 neuroglioma cells, luminescence, confirmation (AID 1988); format: functional, cell-based
[6] = biological target: T1, Heat shock factor protein 1 (Mus musculus, UniProt P38532); experiment: decrease of HSF1-responsive luciferase luminescence – cell-based, NIH3T3, dose retest, confirmation (AID 2382); format: functional;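 further: NIH3T3 fibroblasts with HSF1-driven luciferase reporter stressed by proteasome inhibitor MG132; luminescence from HSF1-driven luciferase expression after 8 hours of MG132 stress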
T1 sequence (P38532 whole entry): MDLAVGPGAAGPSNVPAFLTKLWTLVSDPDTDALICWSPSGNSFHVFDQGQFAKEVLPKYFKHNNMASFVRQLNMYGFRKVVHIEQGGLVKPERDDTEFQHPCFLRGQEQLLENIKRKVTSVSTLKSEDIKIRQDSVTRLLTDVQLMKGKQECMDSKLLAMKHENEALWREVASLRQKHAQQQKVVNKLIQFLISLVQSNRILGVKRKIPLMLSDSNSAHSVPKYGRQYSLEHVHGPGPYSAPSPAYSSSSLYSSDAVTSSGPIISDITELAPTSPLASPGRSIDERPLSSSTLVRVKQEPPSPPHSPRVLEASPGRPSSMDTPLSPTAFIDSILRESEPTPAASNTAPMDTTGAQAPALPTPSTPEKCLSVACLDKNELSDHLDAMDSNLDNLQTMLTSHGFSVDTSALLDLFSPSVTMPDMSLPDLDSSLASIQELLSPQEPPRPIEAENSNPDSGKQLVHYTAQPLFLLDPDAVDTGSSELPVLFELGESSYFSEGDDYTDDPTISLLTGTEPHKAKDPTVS

[7] = biological target: Glucose-6-phosphate 1-dehydrogenase (Homo sapiens, UniProt P11413); experiment: inhibition of Homo sapiens G6PD, dose series – biochemical, fluorescence, selectivity assay for P. falciparum G6PD inhibitor project, dose response (AID 504792); format: functional
Exodeoxyribonuclease V = biological target: T2, Exodeoxyribonuclease V (Escherichia coli (strain K12), UniProt P04993+P07648+P08394); experiment: RecBCD inhibition via phage-restricted bacterial growth – absorbance, V66 E. coli, mutant T4 phage, counter-screen for AddAB inhibitor project, dose response (AID 492957); format: functional, cell-based, Escherichia coli str. K-12 substr. MG1655
T2 sequence (P04993 whole entry): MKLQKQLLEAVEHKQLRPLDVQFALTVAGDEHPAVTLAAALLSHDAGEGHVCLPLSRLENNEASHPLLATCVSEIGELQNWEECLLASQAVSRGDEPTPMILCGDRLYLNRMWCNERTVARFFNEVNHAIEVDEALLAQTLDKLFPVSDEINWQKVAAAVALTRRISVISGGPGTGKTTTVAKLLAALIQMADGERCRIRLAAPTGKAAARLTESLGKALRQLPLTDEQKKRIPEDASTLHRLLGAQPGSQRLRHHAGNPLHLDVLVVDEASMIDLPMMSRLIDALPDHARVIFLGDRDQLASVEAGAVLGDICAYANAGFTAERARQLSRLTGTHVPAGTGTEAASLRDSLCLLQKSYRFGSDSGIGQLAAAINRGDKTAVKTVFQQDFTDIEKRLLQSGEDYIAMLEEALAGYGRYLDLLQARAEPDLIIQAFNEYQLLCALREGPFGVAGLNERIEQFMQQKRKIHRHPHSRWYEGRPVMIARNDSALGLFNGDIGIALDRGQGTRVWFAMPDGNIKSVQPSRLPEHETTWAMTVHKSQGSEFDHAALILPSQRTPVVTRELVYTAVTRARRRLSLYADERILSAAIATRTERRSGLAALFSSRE
T2 sequence (P07648 whole entry): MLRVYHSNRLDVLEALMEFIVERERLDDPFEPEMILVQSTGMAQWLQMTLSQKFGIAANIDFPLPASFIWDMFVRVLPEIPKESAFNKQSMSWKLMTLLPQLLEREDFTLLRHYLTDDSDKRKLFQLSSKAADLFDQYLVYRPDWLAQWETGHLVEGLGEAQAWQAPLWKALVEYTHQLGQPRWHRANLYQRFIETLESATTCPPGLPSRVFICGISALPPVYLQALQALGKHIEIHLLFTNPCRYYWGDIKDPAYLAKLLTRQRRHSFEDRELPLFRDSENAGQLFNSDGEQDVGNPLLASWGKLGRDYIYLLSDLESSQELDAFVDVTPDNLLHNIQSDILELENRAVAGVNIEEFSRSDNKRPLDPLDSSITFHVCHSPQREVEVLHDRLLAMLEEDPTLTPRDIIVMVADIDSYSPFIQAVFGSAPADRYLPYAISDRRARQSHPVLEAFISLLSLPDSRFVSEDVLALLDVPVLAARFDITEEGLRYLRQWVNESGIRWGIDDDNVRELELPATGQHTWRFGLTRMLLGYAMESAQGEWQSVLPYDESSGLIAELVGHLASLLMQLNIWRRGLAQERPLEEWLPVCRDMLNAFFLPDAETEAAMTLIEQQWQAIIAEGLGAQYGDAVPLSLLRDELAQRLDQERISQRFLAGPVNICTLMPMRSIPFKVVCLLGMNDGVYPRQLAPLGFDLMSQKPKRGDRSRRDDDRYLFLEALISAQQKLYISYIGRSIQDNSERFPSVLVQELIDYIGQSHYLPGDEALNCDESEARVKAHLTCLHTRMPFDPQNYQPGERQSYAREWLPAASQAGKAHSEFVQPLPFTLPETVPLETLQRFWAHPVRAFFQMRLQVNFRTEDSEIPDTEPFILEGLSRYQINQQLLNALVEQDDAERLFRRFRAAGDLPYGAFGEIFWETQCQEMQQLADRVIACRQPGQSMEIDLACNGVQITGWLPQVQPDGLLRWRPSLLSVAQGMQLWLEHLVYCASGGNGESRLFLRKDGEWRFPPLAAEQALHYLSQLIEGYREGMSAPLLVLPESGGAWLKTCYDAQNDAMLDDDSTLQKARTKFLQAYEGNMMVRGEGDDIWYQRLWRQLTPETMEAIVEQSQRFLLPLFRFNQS
T2 sequence (P08394 whole entry): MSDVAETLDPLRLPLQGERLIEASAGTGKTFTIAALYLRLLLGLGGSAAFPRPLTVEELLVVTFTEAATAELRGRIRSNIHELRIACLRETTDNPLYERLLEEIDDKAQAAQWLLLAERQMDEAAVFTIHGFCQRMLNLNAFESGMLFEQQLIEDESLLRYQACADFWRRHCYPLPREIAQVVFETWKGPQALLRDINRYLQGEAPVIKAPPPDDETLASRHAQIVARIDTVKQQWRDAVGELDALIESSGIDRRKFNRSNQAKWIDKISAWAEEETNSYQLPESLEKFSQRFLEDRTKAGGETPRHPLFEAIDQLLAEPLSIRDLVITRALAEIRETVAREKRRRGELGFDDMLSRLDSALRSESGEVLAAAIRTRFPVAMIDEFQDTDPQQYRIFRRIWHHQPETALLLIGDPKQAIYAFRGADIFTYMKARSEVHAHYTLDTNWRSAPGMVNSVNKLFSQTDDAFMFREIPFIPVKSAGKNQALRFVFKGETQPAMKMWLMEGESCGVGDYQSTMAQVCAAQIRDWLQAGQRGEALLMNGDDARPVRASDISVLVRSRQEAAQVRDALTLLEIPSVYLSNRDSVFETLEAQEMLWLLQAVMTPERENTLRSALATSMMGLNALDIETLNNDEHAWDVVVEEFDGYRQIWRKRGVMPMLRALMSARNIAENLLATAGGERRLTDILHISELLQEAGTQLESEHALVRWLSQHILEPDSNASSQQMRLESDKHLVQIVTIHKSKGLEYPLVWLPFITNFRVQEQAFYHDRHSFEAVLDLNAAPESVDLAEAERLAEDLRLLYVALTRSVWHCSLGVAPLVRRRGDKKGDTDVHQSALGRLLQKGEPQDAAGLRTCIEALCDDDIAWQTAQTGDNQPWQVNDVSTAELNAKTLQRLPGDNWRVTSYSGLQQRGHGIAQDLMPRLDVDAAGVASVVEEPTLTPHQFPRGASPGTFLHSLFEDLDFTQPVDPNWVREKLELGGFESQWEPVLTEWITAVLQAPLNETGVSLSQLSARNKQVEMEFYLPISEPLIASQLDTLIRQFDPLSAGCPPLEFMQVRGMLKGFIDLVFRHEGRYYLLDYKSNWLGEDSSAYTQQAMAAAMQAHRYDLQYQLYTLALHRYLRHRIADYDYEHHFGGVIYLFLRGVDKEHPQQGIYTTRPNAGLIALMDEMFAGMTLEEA

[8] = Counterscreen for AddAB inhibitors: absorbance-based bacterial cell-based high throughput dose response assay for inhibitors of bacterial viability. [Related pubchem assays (depositor defined):AID435030, AID449728, AID449731, AID488942, AID488955, AID488956]; format: functional
Large T antigen = Large T antigen (Simian virus 40, UniProt P03070); format: functional, Betapolyomavirus macacae;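 further: Confirmatory-stage PubChem screen for compounds that inhibit SV40 T antigen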
[9] = biological target: T3, Rac GTPase-activating protein 1 (Homo sapiens, UniProt Q9H0H5); experiment: blockers of MgcRacGAP-driven Rac1 GTP hydrolysis – biochemical, ADP Hunter fluorescence, primary and confirmatory, confirmation (AID 624330); format: functional
T3 sequence (Q9H0H5 whole entry): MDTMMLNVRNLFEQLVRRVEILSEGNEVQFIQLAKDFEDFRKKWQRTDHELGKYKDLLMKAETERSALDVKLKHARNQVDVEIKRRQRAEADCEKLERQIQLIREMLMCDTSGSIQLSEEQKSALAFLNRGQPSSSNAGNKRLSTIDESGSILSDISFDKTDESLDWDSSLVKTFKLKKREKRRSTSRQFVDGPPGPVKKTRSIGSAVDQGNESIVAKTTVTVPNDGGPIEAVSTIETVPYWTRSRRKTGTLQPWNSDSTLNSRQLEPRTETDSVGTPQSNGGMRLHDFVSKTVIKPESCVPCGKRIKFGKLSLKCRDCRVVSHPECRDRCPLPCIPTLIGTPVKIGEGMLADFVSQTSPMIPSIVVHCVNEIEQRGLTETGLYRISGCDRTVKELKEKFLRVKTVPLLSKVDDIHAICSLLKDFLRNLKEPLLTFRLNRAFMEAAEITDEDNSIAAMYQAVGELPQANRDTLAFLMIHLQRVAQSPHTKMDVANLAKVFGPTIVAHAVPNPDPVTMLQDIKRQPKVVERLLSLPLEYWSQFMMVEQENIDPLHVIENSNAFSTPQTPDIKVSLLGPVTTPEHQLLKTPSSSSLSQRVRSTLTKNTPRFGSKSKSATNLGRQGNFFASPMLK

BJ [10] = experiment: BJ-TERT fibroblast viability loss – cell-based, RAS-independent, luminescence, dose response (AID 1933); format: functional; conditions: Homo sapiens
BJ [11] = experiment: cells; format: functional, cell-based; conditions: Homo sapiens
BJ [12] = experiment: BJ-TERT-LT-ST fibroblast viability loss – cell-based, RAS-independent, luminescence, dose response (AID 1935); format: functional; conditions: Homo sapiens;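 further: BJ fibroblasts immortalized with TERT plus LT and ST oncogenes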
[13] = DRD fibroblast viability loss – cell-based, non-viral oncogenic, luminescence, dose response (AID 1934); format: functional; conditions: Homo sapiens
BJ [14] = experiment: growth inhibition of engineered Ras-driven BJ cells – cell-based, alamar blue fluorescence, cherrypicked samples, dose response (AID 2631); format: functional; conditions: Homo sapiens;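 further: confirmatory dose-response assay in RAS-dependent BJ fibroblasts engineered with TERT, LT and ST, with cytotoxicity read by fluorescence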
INS1 = experiment: INS-1E survival protection against cytokine death – cell-based, luminescence, retest, dose response (AID 449756); format: functional; conditions: Rattus norvegicus;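 further: cell death triggered by IL-1 beta plus TNF-alpha plus IFN-gamma mixture; protective hits raise ATP signal compared with cytokine alone wells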

Sequence of Glucose-6-phosphate 1-dehydrogenase (P11413 whole entry): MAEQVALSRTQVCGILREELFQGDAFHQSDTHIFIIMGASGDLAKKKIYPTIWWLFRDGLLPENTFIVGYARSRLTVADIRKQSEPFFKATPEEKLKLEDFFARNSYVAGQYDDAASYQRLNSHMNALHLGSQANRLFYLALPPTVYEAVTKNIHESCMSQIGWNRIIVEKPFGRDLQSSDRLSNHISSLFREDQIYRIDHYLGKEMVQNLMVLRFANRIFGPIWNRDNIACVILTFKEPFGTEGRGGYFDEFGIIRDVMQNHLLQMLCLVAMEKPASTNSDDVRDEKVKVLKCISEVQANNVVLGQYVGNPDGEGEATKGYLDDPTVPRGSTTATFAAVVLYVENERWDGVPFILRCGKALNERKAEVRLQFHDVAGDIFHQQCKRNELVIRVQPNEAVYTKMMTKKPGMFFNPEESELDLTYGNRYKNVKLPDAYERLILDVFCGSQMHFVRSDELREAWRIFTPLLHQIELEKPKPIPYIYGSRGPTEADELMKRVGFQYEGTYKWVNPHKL
Sequence of Large T antigen (P03070 whole entry): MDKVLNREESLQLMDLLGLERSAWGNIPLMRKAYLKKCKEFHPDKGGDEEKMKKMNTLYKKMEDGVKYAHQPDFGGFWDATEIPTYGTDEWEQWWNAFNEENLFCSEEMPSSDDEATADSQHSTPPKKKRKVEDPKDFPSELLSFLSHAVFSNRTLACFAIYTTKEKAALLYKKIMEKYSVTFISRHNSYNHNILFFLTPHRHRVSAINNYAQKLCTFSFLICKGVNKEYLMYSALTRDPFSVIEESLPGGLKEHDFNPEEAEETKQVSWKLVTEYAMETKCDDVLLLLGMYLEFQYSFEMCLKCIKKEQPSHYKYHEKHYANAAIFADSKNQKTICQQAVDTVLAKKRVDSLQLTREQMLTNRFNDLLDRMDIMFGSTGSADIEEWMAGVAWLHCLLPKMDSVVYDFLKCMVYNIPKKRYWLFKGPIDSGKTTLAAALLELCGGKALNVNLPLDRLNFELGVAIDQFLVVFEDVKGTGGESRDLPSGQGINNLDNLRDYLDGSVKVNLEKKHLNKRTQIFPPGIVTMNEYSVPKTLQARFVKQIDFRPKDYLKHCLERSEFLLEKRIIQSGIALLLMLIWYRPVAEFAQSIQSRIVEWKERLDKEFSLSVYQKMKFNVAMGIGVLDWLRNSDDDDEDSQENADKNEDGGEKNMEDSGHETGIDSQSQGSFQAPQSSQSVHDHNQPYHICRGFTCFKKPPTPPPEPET

CC(C)CCNc1nnnc2c1sc1nc(N3CCOCC3)c3c(c12)CC(C)(C)SC3
EC50 [1]: 27.9 µM (active)
IC50 [2]: 2.29 µM (active)
EC50 [3]: > 120 µM (not active)
IC50 [4]: 12.5 µM (inactive)
EC50 [5]: > 120 µM (not active)

Cc1nc2ccccn2c1-c1ccnn1S(=O)(=O)c1ccc(F)cc1
EC50 [6]: > 195 µM (not active)
IC50 [7]: > 80 µM (inactive)

CC(C)Oc1ccc(Cc2cnc(N)nc2N)cc1
IC50 (Exodeoxyribonuclease V): 56.3 µM (inactive)
IC50 [8]: 36.5 µM (inactive)

CC1(C)OC(=O)C(N=Nc2ccc(O)cc2)=C(O)O1
IC50 (Large T antigen): 6.72 µM (active)
IC50 (Exodeoxyribonuclease V): > 119 µM (inactive)
IC50 [8]: > 119 µM (inactive)
IC50 [9]: 20.9 µM (active)

CC(C)Cc1nc2oc3c(NCC4CCCO4)ncnc3c2c2c1CCC2 (stereo unspecified)
IC50 [2]: 1.4 µM (active)
IC50 [4]: 4.96 µM (active)

CC(=O)Nc1ccc(NC(=O)CN(c2cccc([N+](=O)[O-])c2)S(C)(=O)=O)cc1
EC50 (BJ [10]): > 150 µM (not active)
EC50 (BJ [11]): 3.09 µM (inconclusive)
EC50 (BJ [12]): > 150 µM (inconclusive)
EC50 [13]: > 150 µM (inconclusive)
EC50 (BJ [14]): 11.8 µM (active)
AC50 (INS1): 6.91 µM (active)
